Experimental data from PubChem BioAssay (NCI).
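Five concentrations, 48 hours, 96-well plates. GI50 marks 50% less growth. TGI is the concentration that stops growth completely.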

Key:
Assay in all cases: NCI-60 cell line screen, 48 h
UO-31 renal = system: UO-31 renal
KM12 colon = system: KM12 colon
HS 578T breast = system: HS 578T breast
HCT-116 colon = system: HCT-116 colon
SK-OV-3 ovarian = system: SK-OV-3 ovarian
SF-295 CNS = system: SF-295 CNS
SNB-19 CNS = system: SNB-19 CNS
EKVX NSCLC = system: EKVX NSCLC

SMILES	GI50 (UO-31 renal) [µM]	TGI (UO-31 renal) [µM]	GI50 (KM12 colon) [µM]	TGI (KM12 colon) [µM]	GI50 (HS 578T breast) [µM]	TGI (HS 578T breast) [µM]	GI50 (HCT-116 colon) [µM]	TGI (HCT-116 colon) [µM]	GI50 (SK-OV-3 ovarian) [µM]	TGI (SK-OV-3 ovarian) [µM]	GI50 (SF-295 CNS) [µM]	TGI (SF-295 CNS) [µM]	GI50 (SNB-19 CNS) [µM]	TGI (SNB-19 CNS) [µM]	GI50 (EKVX NSCLC) [µM]	TGI (EKVX NSCLC) [µM]
Cc1ccc2c(c1)C(=O)/C(=C/c1ncc([N+](=O)[O-])n1C)O2	1.17	5.04	1.67	5.21	1.94	> 23.2	0.282	0.886	2.53	7.24	2.22	7.82	2.36	> 25.6	–	–
O=C1c2c(c3c4ccccc4n(CCCCCCBr)c3c3[nH]c4ccccc4c23)C(=O)N1O	2.11	10.1	2.59	10.4	5.14	45.9	2.15	10.8	2.87	10.4	2.75	9.01	4.98	21.5	2.58	9.57
COc1cnc2cc(C(=O)O)c3c([N+](=O)[O-])cccc3c2c1	–	> 100	–	> 100	–	> 100	–	> 100	–	> 100	–	> 100	–	> 100	–	> 100
O=c1oc2ccc(F)cc2c(=O)n1-c1ccc(F)cc1F	1.93	6.56	3.38	14	2.59	8.51	2.86	9.6	1.72	4.6	2.33	5.58	3.5	> 100	2.54	9.79
Cc1nc2cccc([N+](=O)[O-])c2c(NCCCN(C)C)c1C	–	> 100	–	> 62.4	–	> 100	–	59	–	> 100	–	> 100	–	> 100	–	> 31.6
Cc1cc(I)cc(CNCCCN2CCSCC2)c1O	14.3	41.8	16.9	35.9	12.1	26.6	11.1	23	17.9	36.4	11.8	24.6	18.4	41	19.1	50.3
Nc1ccn(C2O[C@H](CO)[C@@H](O)[C@@H]2O)c(=O)n1 (stereo partly specified)	–	> 100	–	> 100	–	> 100	24.2	> 100	–	> 100	–	> 100	–	> 100	–	> 100
O=C1/C(=C/c2ccc(Cl)cc2Cl)N=C(c2ccccc2)N1Cc1ccco1	23.9	> 100	33.7	> 100	22.7	65	20.7	47.1	–	–	22.2	45.9	–	–	27.3	75
Cc1nn(CN2CCN(C)CC2)c(=S)n1/N=C/c1cccc2ccccc12	22	54.4	19.3	41.4	26.8	74.8	18	35.6	16	42.3	24.9	59.5	20.3	51.6	31.8	> 100
COc1cc(/C=C/c2cc(/C=C/c3ccc(O)c(OC)c3)n(-c3ccccc3)n2)ccc1O	0.287	1.53	0.315	1.29	0.157	> 23.2	–	–	0.334	1.27	–	–	–	–	1.12	3.7
CNC(=O)OCc1c(COC(=O)NC)c(-c2ccc(Cl)c(Cl)c2)n2c1SCC2	–	25.5	–	36.8	–	51	–	26	–	28.1	–	35.7	–	> 84.9	–	72
N#C/C(=C1C=C/C(=N/O)C(Br)=C/1)c1ccccc1	2.04	15.4	0.347	1.42	2.52	8.09	0.362	2.13	4.43	71.6	2.81	8.47	8.7	> 100	–	–
CN1CCN(Cc2ccc(NC(=O)c3cncc(C#Cc4cnc(N)c5ccc(C#N)cc45)c3)cc2C(F)(F)F)CC1	0.0809	0.565	0.005	0.603	0.0217	0.406	0.0254	0.672	0.0212	0.599	0.214	9.95	–	–	0.185	6.13
O=C1C=CC(=Nc2ccc3c(c2)C(Br)c2ccccc2-3)O1 (stereo unspecified)	–	> 100	–	–	–	–	–	> 100	–	> 100	–	> 100	–	> 100	–	> 100
CC1=C(C(=O)Nc2ccc([N+](=O)[O-])cc2)C(c2ccc(N(C)C)cc2)C(C(=O)Nc2ccc([N+](=O)[O-])cc2)=C(C)N1	–	> 100	–	37	–	–	–	–	–	80	–	74.6	–	> 100	–	90.4
CC[CH2][Pb]([CH2]CC)([CH2]CC)[O]C(=O)C(F)(F)F	0.141	0.409	0.125	0.33	0.0947	0.759	0.0798	0.262	0.275	1.09	0.182	0.434	0.206	0.81	–	–
N#CSCC1CC(O)(c2ccccc2)C(c2ccccc2)C(c2ccc(Cl)cc2)O1 (stereo unspecified)	1.33	2.68	–	–	3.22	81	0.569	1.99	2.68	6.21	1.75	4.22	–	–	–	–
O=[N+]([O-])/C=C\c1ccc(Cl)c(Cl)c1	1.08	2.33	2.08	4.56	2.42	7.6	–	–	14.4	27.4	1.83	3.73	3.77	16.7	4.01	17.5
